In patent US10442803B2, “Tricyclic heterocycles as bet protein inhibitors” (Incyte Corporation, priority 2013, dated 2019):
Where a name gives a salt, the structure may show the parent alone.

Test system: KMS.12.BM cells
Assay: KMS.12.BM cell viability assay
Assay type: cell-based
Settings: 72 h; KMS.12.BM human myeloma cells, 3 days, Cell Titer-GLO ATP quantitation; read-out: KMS cellular IC50
Outline: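 Human myeloma KMS.12.BM cells, 5000 per well in RPMI/10% FBS, exposed 3 days to compound concentration range. Viability from ATP-based Cell Titer-GLO luminescence; IC50 derived.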

Row | SMILES | IC50 [nM]
1 | CCNC(=O)c1cc2c(ccc3nnc(C)n32)n1Cc1cccc(Cl)c1 [Example 113, 6-(3-Chlorobenzyl)-N-ethyl-1-methyl-6H-pyrrolo[2,3-e][1,2,4]triazolo[4,3-a]pyridine-7-carboxamide trifluoroacetate salt] | ≤ 1000
2 | Cc1nnc2ccc3c(cc(C(=O)NCC4CC4)n3Cc3cccc(Cl)c3)n12 [Example 114, 6-(3-Chlorobenzyl)-N-(cyclopropylmethyl)-1-methyl-6H-pyrrolo[2,3-e][1,2,4]triazolo[4,3-a]pyridine-7-carboxamide trifluoroacetate salt] | ≤ 1000
3 | Cc1nnc2ccc3c(cc(C(=O)NCCO)n3Cc3cccc(Cl)c3)n12 [Example 117, 6-(3-Chlorobenzyl)-N-(2-hydroxyethyl)-1-methyl-6H-pyrrolo[2,3-e][1,2,4]triazolo[4,3-a]pyridine-7-carboxamide trifluoroacetate salt] | ≤ 1000
4 | Cc1nnc2ccc3c(cc(C(=O)NCCN4CCOCC4)n3Cc3cccc(Cl)c3)n12 [Example 119, 6-(3-Chlorobenzyl)-1-methyl-N-(2-morpholin-4-ylethyl)-6H-pyrrolo[2,3-e][1,2,4]triazolo[4,3-a]pyridine-7-carboxamide trifluoroacetate salt] | ≤ 1000
5 | CCNC(=O)c1cc2c(ccc3nnc(C)n32)n1Cc1cccc(CN2CCC2)c1 [Example 121, 6-[3-(Azetidin-1-ylmethyl)benzyl]-N-ethyl-1-methyl-6H-pyrrolo[2,3-e][1,2,4]triazolo[4,3-a]pyridine-7-carboxamide bis(trifluoroacetate) salt] | ≤ 1000
6 | CNC(=O)c1cc2c(ccc3nnc(C)n32)n1Cc1cccc(CN2CCC2)c1 [Example 122, 6-[3-(Azetidin-1-ylmethyl)benzyl]-N,1-dimethyl-6H-pyrrolo[2,3-e][1,2,4]triazolo[4,3-a]pyridine-7-carboxamide bis(trifluoroacetate) salt] | 1000 to 10000
7 | Cc1nnc2ccc3c(cc(C(=O)NCCCO)n3Cc3ccccc3)n12 [Example 123, 6-Benzyl-N-(3-hydroxypropyl)-1-methyl-6H-pyrrolo[2,3-e][1,2,4]triazolo[4,3-a]pyridine-7-carboxamide trifluoroacetate salt] | ≤ 1000
8 | Cc1nnc2ccc3c(cc(C(=O)NCC(C)C)n3Cc3ccccc3)n12 [Example 125, 6-Benzyl-N-isobutyl-1-methyl-6H-pyrrolo[2,3-e][1,2,4]triazolo[4,3-a]pyridine-7-carboxamide trifluoroacetate] | ≤ 1000
9 | Cc1nnc2ccc3c(cc(C(=O)NCc4ccncc4)n3Cc3ccccc3)n12 [Example 126, 6-Benzyl-1-methyl-N-(pyridin-4-ylmethyl)-6H-pyrrolo[2,3-e][1,2,4]triazolo[4,3-a]pyridine-7-carboxamide bis(trifluoroacetate) salt] | ≤ 1000
10 | Cc1nnc2ccc3c(cc(C(=O)NCCCO)n3Cc3cccc(Cl)c3)n12 [Example 127, 6-(3-Chlorobenzyl)-N-(3-hydroxypropyl)-1-methyl-6H-pyrrolo[2,3-e][1,2,4]triazolo[4,3-a]pyridine-7-carboxamide trifluoroacetate salt] | ≤ 1000
11 | Cc1nnc2ccc3c(cc(C(=O)NCC(C)C)n3Cc3cccc(Cl)c3)n12 [Example 129, 6-(3-Chlorobenzyl)-N-isobutyl-1-methyl-6H-pyrrolo[2,3-e][1,2,4]triazolo[4,3-a]pyridine-7-carboxamide trifluoroacetate salt] | ≤ 1000
12 | Cc1nnc2ccc3c(cc(C(=O)NCc4ccncc4)n3Cc3cccc(Cl)c3)n12 [Example 130, 6-(3-Chlorobenzyl)-1-methyl-N-(pyridin-4-ylmethyl)-6H-pyrrolo[2,3-e][1,2,4]triazolo[4,3-a]pyridine-7-carboxamide bis(trifluoroacetate) salt] | ≤ 1000
13 | CNC(=O)c1cc2c(ccc3nnc(C)n32)n1Cc1cc(Cl)cc(CN2CCC2)c1 [Example 131, 6-[3-(Azetidin-1-ylmethyl)-5-chlorobenzyl]-N,1-dimethyl-6H-pyrrolo[2,3-e][1,2,4]triazolo[4,3-a]pyridine-7-carboxamide bis(trifluoroacetate) salt] | ≤ 1000
